Reference: patent US20260167656A1, “PHOSPHORAMIDATE COMPOUNDS AND USES THEREOF” (ALLORION THERAPEUTICS INC, priority 2022, published 2026)

Tests used:
[1] = test system: non-small cell lung cancer cell line H460; test: H460 proliferation assay in the presence of 3 uM ASP9521 (AKR1C3 specific inhibitor); assay type: cell-based, human; settings: H460 cells, CellTiter-Glo, 72 hours, in the presence of 3 uM ASP9521 added 4 hours prior to compounds; read-out: CTG H460: Avg IC50 (nM) [Assay Condition: ASP9521]
Outline: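 AKR1C3 blocked with 3 uM ASP9521 given 4 h ahead of test compounds. H460 cells, plated 24 h earlier, were then treated for 72 h at 37 °C in 5% CO2. CellTiter-Glo luminescence gave viability.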

[2] = test system: non-small cell lung cancer cell line H460; test: In vitro human cancer cell line cytotoxicity (proliferation) assay in H460, CellTiter-Glo, 72 hours; assay type: cell-based; settings: DMSO condition (no AKR1C3 inhibitor), read-out: CTG H460: Avg IC50 (nM) [Assay Condition: DMSO]
Outline: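 IC50s in nM come from CellTiter-Glo viability read after 72 h of compound exposure. Compounds went in from 10 mM DMSO stocks onto H460 cells, which had been plated at 3×10^3 per well and grown 24 h beforehand at 37 °C, 5% CO2.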

[3] = Homo sapiens, NCI-H460, 72 h, H460 cells
[4] = Homo sapiens, NCI-H460, H460 cells

With `Cn1cccc(-c2ccc(Oc3c([N+](=O)[O-])ccc4c3CC[C@H]4OP(=O)(N3CC3)N3CC3)cc2)c1=O` [Example 271] the IC50 [1] was 920 nM and the IC50 ([2]; H460 cells) was under 10 nM.

`O=[N+]([O-])c1ccc2c(c1Oc1ccc(-c3cccnc3)cc1)CC[C@H]2OP(=O)(N1CC1)N1CC1` [Example 272] showed an IC50 [1] of 3120 nM and an IC50 ([2]; H460 cells) of 10 to 50 nM.

`Cn1cc(-c2ccc(Oc3c([N+](=O)[O-])ccc4c3CC[C@H]4OP(=O)(N3CC3)N3CC3)cc2)cn1` [Example 273] gave an IC50 [1] of 1400 nM and an IC50 ([2]; H460 cells) of under 10 nM.

For `O=[N+]([O-])c1ccc2c(c1Oc1ccc(-c3ccncc3)cc1)CC[C@H]2OP(=O)(N1CC1)N1CC1` [Example 274], the IC50 [1] was 7430 nM and the IC50 ([2]; H460 cells) was 10 to 50 nM.

`O=[N+]([O-])c1ccc2c(c1Oc1ccc(-c3ccc(F)cn3)c(F)c1)CC[C@@H]2OP(=O)(N1CC1)N1CC1` [Example 275] was tested, and the IC50 [1] was 1350 nM and the IC50 [2, 3] was under 10 nM.

`O=[N+]([O-])c1ccc2c(c1Oc1ccc(-c3ccc(F)cn3)cc1)CC[C@H]2OP(=O)(N1CC1)N1CC1` [Example 278] showed an IC50 [1] of 1560 nM and an IC50 ([2]; H460 cells) of under 10 nM.

With `Cc1cccc(-c2ccc(Oc3c([N+](=O)[O-])ccc4c3CC[C@H]4OP(=O)(N3CC3)N3CC3)cc2)n1` [Example 279] the IC50 [1] was 1310 nM and the IC50 ([2]; H460 cells) was under 10 nM.

With `Cc1noc(-c2ccc(Oc3c([N+](=O)[O-])ccc4c3CC[C@@H]4OP(=O)(N3CC3)N3CC3)cc2)n1` [Example 283] the IC50 [1] was 1460 nM and the IC50 ([2]; H460 cells) was under 10 nM.

`O=[N+]([O-])c1ccc2c(c1Oc1ccc(-c3ncccn3)cc1)CC[C@H]2OP(=O)(N1CC1)N1CC1` [Example 284] gave an IC50 [1] of 1150 nM and an IC50 ([2]; H460 cells) of under 10 nM.

With `Cc1cncc(-c2ccc(Oc3c([N+](=O)[O-])ccc4c3CC[C@H]4OP(=O)(N3CC3)N3CC3)cc2)n1` [Example 285] the IC50 [1] was 754 nM and the IC50 ([2]; H460 cells) was under 10 nM.

Work on `Cc1nccc(-c2ccc(Oc3c([N+](=O)[O-])ccc4c3CC[C@H]4OP(=O)(N3CC3)N3CC3)cc2)n1` [Example 286] yielded an IC50 [1] of 1870 nM and an IC50 ([2]; H460 cells) of under 10 nM.

Work on `O=[N+]([O-])c1ccc2c(c1Oc1ccc(-c3ccccn3)c(F)c1)CCC2OP(=O)(N1CC1)N1CC1` (stereo not shown) [Example 287] yielded an IC50 [1] of 1010 nM and an IC50 ([2]; H460 cells) of under 10 nM.

`N#Cc1ccc(-c2ccc(Oc3c([N+](=O)[O-])ccc4c3CCC4OP(=O)(N3CC3)N3CC3)cc2)nc1` (stereo not shown) [Example 288] was tested, and the IC50 [1] was 1940 nM and the IC50 ([2]; H460 cells) was under 10 nM.

Compound `Cc1csc(-c2ccc(Oc3c([N+](=O)[O-])ccc4c3CCC4OP(=O)(N3CC3)N3CC3)cc2)n1` (stereo not shown) [Example 289] has an IC50 [1] of 1090 nM and an IC50 ([2]; H460 cells) of under 10 nM.

With `O=[N+]([O-])c1ccc2c(c1Oc1ccc(-c3ccc(O)cn3)cc1)CC[C@@H]2OP(=O)(N1CC1)N1CC1` [Example 290] the IC50 [1] was 274 nM and the IC50 [2, 3] was under 10 nM.

Work on `Cc1coc(-c2ccc(Oc3c([N+](=O)[O-])ccc4c3CC[C@@H]4OP(=O)(N3CC3)N3CC3)cc2)n1` [Example 291] yielded an IC50 [1] of 1970 nM and an IC50 [2, 3] of under 10 nM.

With `Cc1nsc(-c2cccc(Oc3c([N+](=O)[O-])ccc4c3CC[C@@H]4OP(=O)(N3CC3)N3CC3)c2)n1` [Example 292, (S)-4-(3-(3-methyl-1,2,4-thiadiazol-5-yl)phenoxy)-5-nitro-2,3-dihydro-1H-inden-1-yl di(aziridin-1-yl)phosphinate] the IC50 [1] was 1810 nM and the IC50 [2, 4] was under 10 nM.

In the case of `COc1ccc(Oc2c([N+](=O)[O-])ccc3c2CC[C@@H]3OP(=O)(N2CC2)N2CC2)cc1-c1ncc(F)cn1` [Example 293, (S)-4-(3-(5-fluoropyrimidin-2-yl)-4-methoxyphenoxy)-5-nitro-2,3-dihydro-1H-inden-1-yl di(aziridin-1-yl)phosphinate], the IC50 [1] is reported as 1050 nM and the IC50 [2, 3] is reported as under 10 nM.

`COc1ccc(Oc2c([N+](=O)[O-])ccc3c2CC[C@@H]3OP(=O)(N2CC2)N2CC2)cc1-c1ncccn1` [Example 294, (S)-4-(4-methoxy-3-(pyrimidin-2-yl)phenoxy)-5-nitro-2,3-dihydro-1H-inden-1-yl di(aziridin-1-yl)phosphinate] showed an IC50 [1] of 1080 nM and an IC50 [2, 3] of under 10 nM.

`Cc1cnc(-c2cccc(Oc3c([N+](=O)[O-])ccc4c3CC[C@@H]4OP(=O)(N3CC3)N3CC3)c2)o1` [Example 295, (S)-4-(3-(5-methyloxazol-2-yl)phenoxy)-5-nitro-2,3-dihydro-1H-inden-1-yl di(aziridin-1-yl)phosphinate] showed an IC50 [1] of 3620 nM and an IC50 [2, 3] of 10 to 50 nM.

Work on `O=[N+]([O-])c1ccc2c(c1Oc1cccc(-c3ccccn3)c1)CC[C@H]2OP(=O)(N1CC1)N1CC1` [Example 296] yielded an IC50 [1] of 976 nM and an IC50 [2, 3] of under 10 nM.

`O=[N+]([O-])c1ccc2c(c1Oc1cccc(-c3ccccn3)c1)CC[C@@H]2OP(=O)(N1CC1)N1CC1` [Example 297] showed an IC50 [1] of 1300 nM and an IC50 [2, 3] of under 10 nM.

`O=[N+]([O-])c1ccc2c(c1Oc1cccc(-c3ccc(F)cc3)c1)CC[C@@H]2OP(=O)(N1CC1)N1CC1` [Example 298] showed an IC50 [1] of 1690 nM and an IC50 [2, 3] of under 10 nM.

`Cn1cc(-c2cccc(Oc3c([N+](=O)[O-])ccc4c3CCC4OP(=O)(N3CC3)N3CC3)c2)cn1` (stereo not shown) [Example 300] gave an IC50 [1] of 1890 nM and an IC50 ([2]; H460 cells) of under 10 nM.

In the case of `O=[N+]([O-])c1ccc2c(c1Oc1ccc(F)c(-c3ccc(F)cc3)c1)CC[C@H]2OP(=O)(N1CC1)N1CC1` [Example 306], the IC50 [1] is reported as 1990 nM and the IC50 [2, 4] is reported as under 10 nM.

Compound `O=[N+]([O-])c1ccc2c(c1Oc1ccc(F)c(-c3ccc(F)cc3)c1)CC[C@@H]2OP(=O)(N1CC1)N1CC1` [Example 307] has an IC50 [1] of 2360 nM and an IC50 [2, 4] of under 10 nM.

In the case of `O=[N+]([O-])c1ccc2c(c1Oc1cccc(C(F)(F)F)c1)CCC2OP(=O)(N1CC1)N1CC1` (stereo not shown) [Example 308], the IC50 [1] is reported as 357 nM and the IC50 ([2]; H460 cells) is reported as under 10 nM.

For `O=[N+]([O-])c1ccc2c(c1Oc1cccc(-c3cccnc3)c1)CC[C@H]2OP(=O)(N1CC1)N1CC1` [Example 309], the IC50 [1] was 3070 nM and the IC50 [2, 3] was 10 to 50 nM.

For `O=[N+]([O-])c1ccc2c(c1Oc1cccc(-c3cccnc3)c1)CC[C@@H]2OP(=O)(N1CC1)N1CC1` [Example 310], the IC50 [1] was 2010 nM and the IC50 [2, 3] was under 10 nM.

With `O=[N+]([O-])c1ccc2c(c1Oc1cncc(-c3ccccc3)c1)CCC2OP(=O)(N1CC1)N1CC1` (stereo not shown) [Example 311] the IC50 [1] was 485 nM and the IC50 [2, 3] was under 10 nM.

`O=[N+]([O-])c1ccc2c(c1Oc1ccc(F)c(-c3ccccc3)c1)CC[C@H]2OP(=O)(N1CC1)N1CC1` [Example 313] showed an IC50 [1] of 1260 nM and an IC50 [2, 3] of under 10 nM.

`O=[N+]([O-])c1ccc2c(c1Oc1ccc(F)c(-c3ccccc3)c1)CC[C@@H]2OP(=O)(N1CC1)N1CC1` [Example 314] was tested, and the IC50 [1] was 1590 nM and the IC50 [2, 3] was under 10 nM.

`O=[N+]([O-])c1ccc2c(c1Oc1cccc(C3CC3)c1)CCC2OP(=O)(N1CC1)N1CC1` (stereo not shown) [Example 316] gave an IC50 [1] of 781 nM and an IC50 ([2]; H460 cells) of under 10 nM.

`O=[N+]([O-])c1ccc2c(c1Oc1cccc(C3CC3)c1)CCC2OP(=O)(N1CC1)N1CC1` (stereo not shown) [Example 317] was tested, and the IC50 [1] was 1010 nM and the IC50 ([2]; H460 cells) was under 10 nM.

In the case of `O=[N+]([O-])c1ccc2c(c1Oc1cncc(C3CC3)c1)CC[C@H]2OP(=O)(N1CC1)N1CC1` [Example 318], the IC50 [1] is reported as 1070 nM and the IC50 [2, 3] is reported as under 10 nM.

`O=[N+]([O-])c1ccc2c(c1Oc1cncc(C3CC3)c1)CC[C@@H]2OP(=O)(N1CC1)N1CC1` [Example 319] showed an IC50 [1] of 521 nM and an IC50 [2, 3] of under 10 nM.

Compound `Cc1cccc(-c2cccc(Oc3c([N+](=O)[O-])ccc4c3CCC4OP(=O)(N3CC3)N3CC3)c2)n1` (stereo not shown) [Example 321] has an IC50 [1] of 6690 nM and an IC50 ([2]; H460 cells) of 10 to 50 nM.

Work on `O=[N+]([O-])c1ccc2c(c1Oc1cccc(-c3ccc(F)cn3)c1)CCC2OP(=O)(N1CC1)N1CC1` (stereo not shown) [Example 322] yielded an IC50 [1] of 1610 nM and an IC50 ([2]; H460 cells) of under 10 nM.
